Here are results for two molecules from publication PMC5856786, “A DHODH inhibitor increases p53 synthesis and enhances tumor cell killing by p53 degradation blockage” (Nature Communications, 2018).

In series [1] the test system is p53-dependent transcription in ARN8 human melanoma cells. In words: p53-dependent transcription reporter (CPRG assay) in ARN8 cells. The settings on record: ARN8, 16 h. In kind it is cell-based. As for the experimental part:
A 20,000 compound library was purchased from ChemBridge consisting of 10,000 from the DIVERSet and 10,000 from the CombiSet libraries. […] A total of 30,000 additional compounds from the ChemBridge DIVERSet that were previously screened in a T22 cell background[12] were re-screened in ARN8 cells at 5 µM. The ChemBridge codes for these compounds can be made available upon request. All chemical synthesis is detailed in Supplementary Information with NMR spectra and reaction schemes detailed in Supplementary Figs. 13–19.

In another series the test system is ARN8 cells. In words: Giemsa staining of ARN8 cultures (uridine, orotic acid, dihydroorotic acid supplementation). In kind it is cell-based, human. The conditions noted are these: 72 h, 2.5 or 5 μM uridine, serum replacement medium. As for the experimental part:
Additionally, ARN8 cells were treated for 16 h and p53-dependent transcription was measured by CPRG assay. Values correspond to the average of three technical repeats ± SD. c Simplified description of the pyrimidine nucleotide de novo (blue) and salvage (black) pathways. d ARN8 cells were seeded in FBS supplemented DMEM with a change to serum replacement medium 24 h post seeding. […] Values correspond to the average of three technical repeats ± SD. f ARN8 cells were seeded in FBS supplemented DMEM with a change to serum replacement medium 24 h post seeding.

The subject of the next series is ARN8 xenograft. The series is described as follows: ARN8 subcutaneous xenograft. The conditions noted are these: for toxicity in xenograft study: mice, (R)-HZ00 150 mg kg−1 i.p. q.d., nutlin-3 100 mg kg−1 p.o. q.d. The series is classed as in vivo. As for the experimental part:
All animal xenograft experiments were approved by the Norwegian Animal Research Authority and conducted according to The European Convention for the Protection of Vertebrates Used for Scientific Purposes. […] The health status and weight of the mice were monitored daily and they were randomized in a non-blinded manner into 4 groups when tumor volumes reached 30–40 mm^3. […] Tumor volumes were measured every second day by a digital caliper using the following ellipsoid formula: Volume = π (length × width × height)/6.
To determine the efficacy of (R)-HZ05 in combination with nutlin-3a, 4 groups of NSG mice (n = 8 per group) were subcutaneously injected in the flank region with a single 100 μL injection of 2 × 10^6 ARN8 cells in a solution of PBS:Matrigel (volume ratio 3:1). Treatment was initiated when tumors reached ~50 mm^3. The maximum tolerated dose for this combination of drugs was previously determined for the strain we used. The endpoint of the experiment was determined by the tumor size ([…]) weight loss, and general condition of the mice according to The Norwegian Animal Research Authority.

The next series deals with CDK1/CycA2 (Homo sapiens, UniProt P06493). The series is described as follows: biochemical. Also noted: radiometric 33PanQinase protein kinase activity assay, CDK/cyclin panel, per cent remaining activity. The settings on record: read-out: (R)-HZ00 10 µM Average (% remaining activity). The source says:
(§1) Supplementary Table 1. In vitro inhibition (% remaining activity) of cyclin-dependent
(§2) ProQinase GmbH (Freiburg, Germany) using a radiometric protein kinase assay
(§3) (33PanQinase® Activity Assay).
(§4) (1 picture or pasted object on this page, not shown here) 32 Supplementary Table 1. In vitro inhibition (% remaining activity) of cyclin-dependent kinases (CDKs).

The target in another series is CDK1/CycB1 (Homo sapiens, UniProt P06493). The series is described as follows: biochemical. On the set-up: radiometric 33PanQinase protein kinase activity assay, CDK/cyclin panel, per cent remaining activity. The settings on record: read-out: (R)-HZ00 10 µM Average (% remaining activity).
Text: as §1, §2, §3, §4

For another series, the target named is CDK1/CycE1 (Homo sapiens, UniProt P06493). The series is described as follows: biochemical. The conditions noted are these: read-out: (R)-HZ00 10 µM Average (% remaining activity). Also noted: radiometric 33PanQinase protein kinase activity assay, CDK/cyclin panel, per cent remaining activity.
Text: as §1, §2, §3, §4

For the next series, the target named is CDK2/CycA2 (Homo sapiens, UniProt P24941). In words: biochemical. On the set-up: radiometric 33PanQinase protein kinase activity assay, CDK/cyclin panel, per cent remaining activity. The settings on record: read-out: (R)-HZ00 10 µM Average (% remaining activity).
Text: as §1, §2, §3, §4

Another series addresses CDK2/CycE1 (Homo sapiens, UniProt P24941). In words: biochemical. Also noted: radiometric 33PanQinase protein kinase activity assay, CDK/cyclin panel, per cent remaining activity. The settings on record: read-out: (R)-HZ00 10 µM Average (% remaining activity).
Text: as §1, §2, §3, §4

A further series has as its target CDK3/CycE1 (Homo sapiens, UniProt Q00526). In words: biochemical. Also noted: radiometric 33PanQinase protein kinase activity assay, CDK/cyclin panel, per cent remaining activity. The settings on record: read-out: (R)-HZ00 10 µM Average (% remaining activity).
Text: as §1, §2, §3, §4

In the next series the target is CDK4/CycD1 (Homo sapiens, UniProt P11802). In words: biochemical. On the set-up: radiometric 33PanQinase protein kinase activity assay, CDK/cyclin panel, per cent remaining activity. The conditions noted are these: read-out: (R)-HZ00 10 µM Average (% remaining activity).
Text: as §1, §2, §3, §4

The next series deals with CDK4/CycD3 (Homo sapiens, UniProt P11802). The series is described as follows: biochemical. Also noted: radiometric 33PanQinase protein kinase activity assay, CDK/cyclin panel, per cent remaining activity. The settings on record: read-out: (R)-HZ00 10 µM Average (% remaining activity).
Text: as §1, §2, §3, §4

A further series has as its target T1, CDK5/p25NCK (Homo sapiens, UniProt Q00535).
T1 construct: p25
The series is described as follows: biochemical. The settings on record: read-out: (R)-HZ00 10 µM Average (% remaining activity). On the set-up: radiometric 33PanQinase protein kinase activity assay, CDK/cyclin panel, per cent remaining activity.
Text: as §1, §2, §3, §4

A further series deals with T2, CDK5/p35NCK (Homo sapiens, UniProt Q00535).
T2 construct: p35
The series is described as follows: biochemical. Also noted: radiometric 33PanQinase protein kinase activity assay, CDK/cyclin panel, per cent remaining activity. The settings on record: read-out: (R)-HZ00 10 µM Average (% remaining activity).
Text: as §1, §2, §3, §4

Another series deals with CDK6/CycD1 (Homo sapiens, UniProt Q00534). In words: biochemical. Also noted: radiometric 33PanQinase protein kinase activity assay, CDK/cyclin panel, per cent remaining activity. The settings on record: read-out: (R)-HZ00 10 µM Average (% remaining activity).
Text: as §1, §2, §3, §4

The target in a further series is CDK7/CycH/MAT1 (Homo sapiens, UniProt P50613). In words: biochemical. The conditions noted are these: read-out: (R)-HZ00 10 µM Average (% remaining activity). On the set-up: radiometric 33PanQinase protein kinase activity assay, CDK/cyclin panel, per cent remaining activity.
Text: as §1, §2, §3, §4

The target in another series is CDK8/CycC (Homo sapiens, UniProt P49336). The series is described as follows: biochemical. Also noted: radiometric 33PanQinase protein kinase activity assay, CDK/cyclin panel, per cent remaining activity. The settings on record: read-out: (R)-HZ00 10 µM Average (% remaining activity).
Text: as §1, §2, §3, §4

Another series addresses CDK9/CycK (Homo sapiens, UniProt P50750). The series is described as follows: biochemical. The conditions noted are these: read-out: (R)-HZ00 10 µM Average (% remaining activity). Also noted: radiometric 33PanQinase protein kinase activity assay, CDK/cyclin panel, per cent remaining activity.
Text: as §1, §2, §3, §4

In the next series the target is CDK9/CycT1 (Homo sapiens, UniProt P50750). In words: biochemical. Also noted: radiometric 33PanQinase protein kinase activity assay, CDK/cyclin panel, per cent remaining activity. The settings on record: read-out: (R)-HZ00 10 µM Average (% remaining activity).
Text: as §1, §2, §3, §4

The next series has as its target T3, PCTAIRE1/CycY (Homo sapiens, UniProt Q00536).
T3 construct: gene CDK16
The series is described as follows: biochemical. On the set-up: radiometric 33PanQinase protein kinase activity assay, CDK/cyclin panel, per cent remaining activity. The conditions noted are these: read-out: (R)-HZ00 10 µM Average (% remaining activity).
Text: as §1, §2, §3, §4

Series [2] is described as follows: Pharmacokinetic study, nutlin-3 single or co-administered with (R)-HZ00. In kind it is in vivo, NOD-SCID mice. The conditions noted are these: mice; nutlin-3 100 mg kg-1 oral + (R)-HZ00 150 mg kg-1 i.p. Here is the method: Waters Acquity UPLC (Waters Corp.) was used for all LC/MS and LC/MS/MS experiments. For chromatographic separation a general gradient was used (5 % mobile phase B to 90 % over 2 min total run) on a C18 BEH 1.7 µm column 2 × 50 mm (Waters Corp.). Mobile phase A consisted of 5 % acetonitrile 0.1 % formic acid and mobile phase B 100 % acetonitrile 0.1 % formic acid. The flow rate was 0.5 mL min-1 and 3 µL of the sample was injected. A standard curve between 3−1000 nM was prepared for each compound.
Cocrystallization, data collection and structure determination of DHODH with inhibitor HZ05 Co-crystals were prepared similar to previously described6. In short 18 mg mL-1 DHODH (dissolved in 10 mM N,N-dimethylundecylamine N-oxide (C11DAO) (Fluka), 400 mM NaCl, 1 mM EDTA, 100 mM HEPES (pH 7), and 30 % glycerol) was mixed in a 1:1 ratio with 2 M NH4SO4, 0.1 M Na Acetate pH 4.8, 30 mM N,N-dimethyldodecylamine N-oxide (DDAO), 15 mM C11DAO, 2 mM L-dihydroorotic acid, 1 mM HZ05 and 6 % DMSO. The crystals did grow from hanging drops at 20°C in a VDX plate; 2.5 µL protein solution mixed with 2.5 µL reservoir (30 % (v/v) glycerol, 0.1 M Na acetate pH 4.8 and 2 M NH4SO4). A crystal was flashfrozen in liquid nitrogen and data was collected to 1.7 Å at Diamond Light Source beamline i02. The structure was determined using Molecular Replacement and refined in Refmac57. […]

Chain of CDK4/CycD1 (P11802 whole entry): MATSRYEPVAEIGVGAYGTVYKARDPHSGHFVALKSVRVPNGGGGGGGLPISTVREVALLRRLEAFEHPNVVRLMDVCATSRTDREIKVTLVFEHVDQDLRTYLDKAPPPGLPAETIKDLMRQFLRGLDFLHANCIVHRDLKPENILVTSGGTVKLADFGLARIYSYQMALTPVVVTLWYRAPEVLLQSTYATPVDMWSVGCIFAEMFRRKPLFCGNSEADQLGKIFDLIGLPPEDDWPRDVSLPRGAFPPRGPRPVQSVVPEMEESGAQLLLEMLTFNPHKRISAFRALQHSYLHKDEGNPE
Chain of CDK4/CycD1 (P24385 whole entry partner): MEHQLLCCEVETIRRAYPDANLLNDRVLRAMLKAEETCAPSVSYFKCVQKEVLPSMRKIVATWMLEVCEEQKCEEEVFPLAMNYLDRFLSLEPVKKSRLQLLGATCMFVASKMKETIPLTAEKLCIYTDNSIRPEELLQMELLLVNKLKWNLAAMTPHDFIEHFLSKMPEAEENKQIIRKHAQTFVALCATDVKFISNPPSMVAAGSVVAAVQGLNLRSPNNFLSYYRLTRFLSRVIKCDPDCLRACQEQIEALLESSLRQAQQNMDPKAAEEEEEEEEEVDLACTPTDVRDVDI
Chain of CDK4/CycD3 (P11802 whole entry): as the sequence (P11802 whole entry) above
Chain of CDK4/CycD3 (P30281 whole entry partner): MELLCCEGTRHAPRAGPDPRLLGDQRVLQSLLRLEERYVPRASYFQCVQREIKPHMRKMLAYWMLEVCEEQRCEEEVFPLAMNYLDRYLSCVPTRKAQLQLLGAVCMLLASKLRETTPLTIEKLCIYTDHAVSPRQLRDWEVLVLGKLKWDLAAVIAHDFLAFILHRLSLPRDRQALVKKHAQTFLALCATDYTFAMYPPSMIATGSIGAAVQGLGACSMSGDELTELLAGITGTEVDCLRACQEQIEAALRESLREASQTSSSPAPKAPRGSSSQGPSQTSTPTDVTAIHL
Chain of CDK7/CycH/MAT1 (P50613 whole entry): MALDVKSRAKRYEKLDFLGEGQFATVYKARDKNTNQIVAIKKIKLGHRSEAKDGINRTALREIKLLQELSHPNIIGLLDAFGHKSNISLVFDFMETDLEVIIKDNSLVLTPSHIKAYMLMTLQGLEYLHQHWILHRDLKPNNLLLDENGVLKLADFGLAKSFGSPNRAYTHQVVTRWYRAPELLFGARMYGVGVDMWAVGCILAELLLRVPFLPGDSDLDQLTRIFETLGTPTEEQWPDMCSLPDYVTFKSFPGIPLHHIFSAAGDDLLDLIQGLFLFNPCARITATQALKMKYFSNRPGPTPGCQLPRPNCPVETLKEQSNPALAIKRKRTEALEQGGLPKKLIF
Chain of CDK7/CycH/MAT1 (P51946 whole entry partner): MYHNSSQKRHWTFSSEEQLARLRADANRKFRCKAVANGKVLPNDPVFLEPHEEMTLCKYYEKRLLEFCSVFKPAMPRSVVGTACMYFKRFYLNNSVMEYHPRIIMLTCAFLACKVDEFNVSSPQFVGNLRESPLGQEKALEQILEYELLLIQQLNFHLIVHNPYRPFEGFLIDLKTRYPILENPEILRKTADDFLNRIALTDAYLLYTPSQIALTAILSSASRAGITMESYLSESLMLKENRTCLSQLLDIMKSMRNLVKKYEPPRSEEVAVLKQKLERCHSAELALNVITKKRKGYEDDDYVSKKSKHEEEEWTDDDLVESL
Chain of CDK7/CycH/MAT1 (P51948 whole entry partner): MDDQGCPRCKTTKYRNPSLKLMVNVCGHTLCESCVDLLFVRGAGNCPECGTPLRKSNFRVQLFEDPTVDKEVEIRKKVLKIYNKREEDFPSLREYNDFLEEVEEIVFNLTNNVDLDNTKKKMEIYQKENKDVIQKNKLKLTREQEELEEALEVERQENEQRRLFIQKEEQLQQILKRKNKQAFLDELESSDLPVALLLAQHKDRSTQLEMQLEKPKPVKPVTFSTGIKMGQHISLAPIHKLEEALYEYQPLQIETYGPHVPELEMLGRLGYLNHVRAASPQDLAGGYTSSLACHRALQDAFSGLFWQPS
T1 sequence (Q00535 whole entry): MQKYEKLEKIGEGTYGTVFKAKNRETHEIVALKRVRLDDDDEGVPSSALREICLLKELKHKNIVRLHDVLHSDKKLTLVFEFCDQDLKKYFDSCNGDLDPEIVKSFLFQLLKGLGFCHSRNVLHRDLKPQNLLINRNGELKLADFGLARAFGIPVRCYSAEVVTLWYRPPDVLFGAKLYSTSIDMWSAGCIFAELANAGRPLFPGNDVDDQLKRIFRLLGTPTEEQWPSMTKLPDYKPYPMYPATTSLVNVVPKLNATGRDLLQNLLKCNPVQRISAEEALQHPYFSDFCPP
T1 sequence (Q15078 whole entry partner): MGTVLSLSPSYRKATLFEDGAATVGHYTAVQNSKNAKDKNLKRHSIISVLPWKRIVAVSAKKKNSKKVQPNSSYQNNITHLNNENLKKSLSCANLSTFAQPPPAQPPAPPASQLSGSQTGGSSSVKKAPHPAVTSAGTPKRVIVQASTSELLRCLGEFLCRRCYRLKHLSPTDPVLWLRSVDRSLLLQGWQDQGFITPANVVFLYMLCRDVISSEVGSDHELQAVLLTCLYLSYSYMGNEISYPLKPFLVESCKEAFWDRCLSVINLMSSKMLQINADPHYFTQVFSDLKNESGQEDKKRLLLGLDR
T2 sequence (Q00535 whole entry): as the sequence (Q00535 whole entry) above
T2 sequence (Q15078 whole entry partner): as the sequence (Q15078 whole entry partner) above
Chain of CDK1/CycA2 (P06493 whole entry): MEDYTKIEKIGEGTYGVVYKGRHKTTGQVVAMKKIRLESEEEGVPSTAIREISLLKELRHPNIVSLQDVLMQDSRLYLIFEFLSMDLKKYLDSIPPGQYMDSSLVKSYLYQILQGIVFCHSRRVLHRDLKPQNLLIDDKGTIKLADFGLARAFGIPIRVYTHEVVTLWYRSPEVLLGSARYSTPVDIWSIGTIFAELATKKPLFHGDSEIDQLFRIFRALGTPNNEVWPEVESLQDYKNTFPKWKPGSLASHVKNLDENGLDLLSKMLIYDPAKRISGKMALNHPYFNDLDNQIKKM
Chain of CDK1/CycA2 (P20248 whole entry partner): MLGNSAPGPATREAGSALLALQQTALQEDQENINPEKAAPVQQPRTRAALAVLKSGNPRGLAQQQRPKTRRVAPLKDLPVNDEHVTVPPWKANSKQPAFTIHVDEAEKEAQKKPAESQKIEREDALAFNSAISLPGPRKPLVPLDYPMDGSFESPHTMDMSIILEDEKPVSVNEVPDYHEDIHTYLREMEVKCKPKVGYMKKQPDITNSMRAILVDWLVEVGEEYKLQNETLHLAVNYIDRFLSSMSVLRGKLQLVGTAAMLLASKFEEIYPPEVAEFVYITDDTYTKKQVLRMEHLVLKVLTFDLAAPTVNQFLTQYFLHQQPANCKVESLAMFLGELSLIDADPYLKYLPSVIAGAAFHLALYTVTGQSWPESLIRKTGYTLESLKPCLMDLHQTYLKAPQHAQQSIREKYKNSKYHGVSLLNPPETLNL
Chain of CDK1/CycE1 (P06493 whole entry): as the sequence (P06493 whole entry) above
Chain of CDK1/CycE1 (P24864 whole entry partner): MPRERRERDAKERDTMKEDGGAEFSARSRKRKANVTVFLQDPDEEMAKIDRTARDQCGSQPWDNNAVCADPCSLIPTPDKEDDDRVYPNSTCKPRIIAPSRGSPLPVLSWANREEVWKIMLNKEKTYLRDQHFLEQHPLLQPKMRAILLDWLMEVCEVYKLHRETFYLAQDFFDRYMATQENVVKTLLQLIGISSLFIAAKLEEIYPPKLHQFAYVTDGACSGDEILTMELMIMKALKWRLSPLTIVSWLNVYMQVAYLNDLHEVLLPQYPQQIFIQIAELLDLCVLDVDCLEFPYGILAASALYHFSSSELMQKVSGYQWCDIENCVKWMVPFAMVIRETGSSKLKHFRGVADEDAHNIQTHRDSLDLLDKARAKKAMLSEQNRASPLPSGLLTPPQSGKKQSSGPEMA
Chain of CDK6/CycD1 (Q00534 whole entry): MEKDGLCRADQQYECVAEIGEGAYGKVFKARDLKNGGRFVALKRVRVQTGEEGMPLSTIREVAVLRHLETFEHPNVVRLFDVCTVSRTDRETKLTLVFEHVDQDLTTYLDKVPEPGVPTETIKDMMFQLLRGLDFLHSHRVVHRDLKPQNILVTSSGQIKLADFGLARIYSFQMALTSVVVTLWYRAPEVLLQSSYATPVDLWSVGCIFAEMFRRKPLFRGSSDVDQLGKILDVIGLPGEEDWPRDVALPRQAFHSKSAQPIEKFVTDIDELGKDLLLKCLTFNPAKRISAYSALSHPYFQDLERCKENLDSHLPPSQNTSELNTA
Chain of CDK6/CycD1 (P24385 whole entry partner): as the sequence (P24385 whole entry partner) above

Consider `O=C(N[C@@H]1CCCc2c1cnn2-c1ccccc1F)c1ccccn1` [(R)-HZ00], for which the “p53 reporter activity, (R)- versus (S)-enantiomer” value in series [1] was “significantly higher p53 reporter activity”. In addition, the “tumor cell growth at physiological uridine levels” value in the series with ARN8 cells is given as “markedly reduce tumor cell growth”. Further, the “xenograft tumor growth, combination with nutlin-3” value in the series with ARN8 xenograft ((R)-HZ00 150 mg kg−1 i.p. q.d. + nutlin-3 100 mg kg−1 p.o. q.d.) is reported as “significant ARN8 xenograft tumor growth inhibition”. Also, the “toxicity in xenograft study” value in the series with ARN8 xenograft was “not toxic”. Besides, the remaining activity at 10 µM was found to be 90.9% at CDK1/CycA2; 100% on CDK1/CycB1; 103% on CDK1/CycE1; 101% on CDK2/CycA2; 96.8% on CDK2/CycE1; 90.8% at CDK3/CycE1. Moreover, the remaining activity at 10 µM turned out to be 104% on CDK4/CycD1; 98.3% on CDK4/CycD3; 113% at CDK5/p25NCK; 101% on CDK5/p35NCK; 97.1% at CDK6/CycD1; 105% at CDK7/CycH/MAT1. Further, the remaining activity at 10 µM came to 92.4% on CDK8/CycC, 95.9% on CDK9/CycK, 107% on CDK9/CycT1 and 95.4% at PCTAIRE1/CycY.

Regarding `COc1ccc(C2=N[C@@H](c3ccc(Cl)cc3)[C@@H](c3ccc(Cl)cc3)N2C(=O)N2CCNC(=O)C2)c(OC(C)C)c1` [nutlin-3, reference compound], in the series with ARN8 xenograft, the “toxicity in xenograft study” value is reported as “treatments had to be discontinued after 9 days due to the toxicity”. Moreover, the “half-life on co-administration with (R)-HZ00” value in [2] was “not prolonged”.

As a reminder, the remaining activity is the signal under treatment as a percentage of the control signal.
